Results published in patent EP4616862A1, “ANTIVIRAL C[…] DERIVED FROM NUCLEIC ACID AND PHARMACEUTICALLY ACCEPTABLE SALTS THEREOF” (priority 2022, dated 2024).
Read-outs that look alike come from different tables or passages of the source.

How the values were obtained:
[1] = tested on: Canine coronavirus (CCoV); test: microbe, parasite or virus in culture; type: cell-based
[2] = Cytotoxicity (FIPV example); type: cell-based, feline; settings: Table 9 (FIPV), cell line for cytotoxicity not given
[3] = in vitro
[4] = in vitro; remark: listed apart in the source
[5] = in vitro; remark: listed apart in the source
[6] = tested on: RNaseL; type: cell-based, Pig
[7] = tested on: FIPV; test: FIPV infection inhibition in FCWF-4 cells (RT-qPCR); type: cell-based, Feline Infectious peritonitis virus; settings: for IC50: FCWF-4 cell line; for SI (selectivity index): CC50/IC50
[8] = Cytotoxicity (CCoV example); type: cell-based, canine; settings: Table 4 (CCoV), cell line for cytotoxicity not given
[9] = Cytotoxicity (FCV example); type: cell-based, feline; settings: Table 8 (FCV), cell line for cytotoxicity not given
[10] = tested on: Classical Swine Fever Virus (CSFV); test: microbe, parasite or virus in culture; type: cell-based; settings: for IC50: Classical swine fever virus, PK-15, 48 h, read-out: IC50 (CSFV infection inhibition concentration)
[11] = tested on: Feline Calicivirus (FCV); test: microbe, parasite or virus in culture; type: cell-based; settings: for IC50: Feline calicivirus, CRFK, 24 h, read-out: IC50 (FCV infection inhibition concentration)
[12] = tested on: Mx1; type: cell-based, Pig
[13] = Cytotoxicity (FPV example); type: cell-based, feline; settings: Table 7 (FPV), cell line for cytotoxicity not given
[14] = tested on: Feline parvovirus (FPV); test: microbe, parasite or virus in culture; type: cell-based; settings: for IC50: Feline parvovirus, CRFK, 48 h, read-out: IC50 (FPV infection inhibition concentration)
[15] = Cytotoxicity (CDV example); type: cell-based, monkey; settings: Table 6 (CDV), cell line for cytotoxicity not given
[16] = Cytotoxicity (CAV example); type: cell-based, monkey; settings: Table 5 (CAV), cell line for cytotoxicity not given
[17] = tested on: foot and mouth disease virus (FMDV); test: microbe, parasite or virus in culture; type: cell-based; settings: for IC50: Foot-and-mouth disease virus, BHK-21, 36 h, read-out: IC50 (FMDV infection inhibition concentration)
[18] = tested on: ISG15; type: cell-based, Pig
[19] = tested on: African Swine Fever Virus (ASFV, China/2018/AnhuiXCGQ); test: microbe, parasite or virus in culture; type: cell-based; settings: for IC50: African swine fever virus, 48 h, read-out: IC50 (ASFV infection inhibition concentration)
[20] = in vitro; remark: listed apart in the source
[21] = tested on: Canine distemper virus (CDV); test: microbe, parasite or virus in culture; type: cell-based; settings: for IC50: canine distemper virus, Vero, 72 h, read-out: IC50 (CDV infection inhibition concentration)
[22] = tested on: Canine adenovirus (CAV); test: CAV infection inhibition in Vero cells (qPCR of viral DNA); type: cell-based; settings: for SI (selectivity index): CAV, CC50/IC50; for IC50: Canine mastadenovirus A, 48 h, Vero cell line, CAV 100 TCID50/well, simultaneous treatment, 2 days, qPCR, read-out: IC50 (CAV infection inhibition concentration)
[23] = tested on: Low pathogenic avian influenza virus (LPAIV, H9N2); test: microbe, parasite or virus in culture; type: cell-based; settings: for IC50: unidentified influenza virus, H9N2, MDCK, 48 h, read-out: IC50 (LPAIV infection inhibition concentration)
[24] = Alphacoronavirus 1, A-72, 48 h, read-out: IC50 (CCoV infection inhibition concentration)
[25] = Alphacoronavirus 1, 48 h, FIPV 100 TCID50/well, simultaneous treatment, 2 days, RT-qPCR, read-out: IC50 (FIPV infection inhibition concentration)

Compound	SI (selectivity index) [1]	IC50 [1, 24]	Fold change (multiple increase compared to control group) RNaseL [6]	IC50 [7, 25]	SI (selectivity index) ([7]; FIPV)	SI (selectivity index) [10]	IC50 [10]	SI (selectivity index) [11]	IC50 [11]	Fold change (multiple increase compared to control group) Mx1 [12]	SI (selectivity index) [14]	IC50 [14]	SI (selectivity index) [17]	IC50 [17]	Fold change (multiple increase compared to control group) ISG15 [18]	SI (selectivity index) [19]	IC50 [19]	SI (selectivity index) [21]	IC50 [21]	SI (selectivity index) [22]	also measured
Nc1nc2c(ncn2[C@@H](CO)OC(CO)CO)c(=O)[nH]1 [Acyclic diol-Guanosine, acyclic diol form of guanosine]	> 4.5	< 2240 µM	3.0 (±0.8)	< 1510 µM	> 6.6	> 2.8	< 3610 µM	> 75.1	< 133 µM	4.0 (±1.2)	> 1.9	< 530 µM	> 4.9	< 2060 µM	4.2 (±1.5)	> 37.0	< 270 µM	> 4.7	< 2120 µM	> 2.4	CC50 ([2]; cat, fcwf-4 cells): > 10000 µM; CC50 ([3]; hamster, bhk-21 cells): > 10000 µM; CC50 ([4]; pig, pam cells): > 10000 µM; CC50 ([5]; dog, mdck): > 10000 µM; CC50 ([8]; dog, a-72 cells): > 10000 µM; CC50 ([9]; cat, crfk cells): > 10000 µM; CC50 ([13]; cat, crfk cells): > 10000 µM; CC50 ([15]; monkey, vero cells): > 10000 µM; CC50 ([16]; monkey, vero cells): > 10000 µM; CC50 ([20]; pig, pk15 cells): > 10000 µM; IC50 [22]: < 4130 µM; IC50 [23]: < 1340 µM
O=C[C@@H](CO)O[C@H](C=O)n1cnc2c(=O)[nH]cnc21 [Dialdehyde-Inosine, dialdehyde form of inosine]	> 221.7	< 45.1 µM	3.0 (±0.2)	< 45.5 µM	> 219.9	> 42.0	< 238 µM	> 384.6	< 26 µM	3.5 (±1.1)	> 192	< 52 µM	> 22.9	< 436 µM	4.0 (±0.6)	> 103.5	< 96.6 µM	> 93.9	< 106 µM	> 30.7	IC50 ([1]; Alphacoronavirus 1, A-72): 45.1 µM; CC50 [2]: > 10000 µM; CC50 [3]: > 10000 µM; CC50 [4]: > 10000 µM; CC50 [5]: > 10000 µM; IC50 ([7]; Alphacoronavirus 1, FIPV, read-out: IC50): 45.5 µM; CC50 [8]: > 10000 µM; CC50 [9]: > 10000 µM; CC50 [13]: > 10000 µM; CC50 [15]: > 10000 µM; CC50 [16]: > 10000 µM; CC50 [20]: > 10000 µM; IC50 [22]: < 326 µM; SI (selectivity index) [23]: > 37.4; IC50 [23]: < 268 µM
